Test results reported in the supplement of paper PMC4862054.

Assays:
Assay in all cases: normalised viability (% of control), CellTiter-Blue; higher = more viable cells (about 100 = DMSO control)
Conditions in all cases: incubation time: 72 h
HDQ-P1 [1] = tested on: HDQ-P1
Protocol: (§1)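 DSRT, CellTiter-Blue viability, 72 h incubation. Signal is normalised to DMSO and benzethonium chloride controls. Value is the normalised response at dose 8.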

CAL-148 [2] = tested on: CAL-148
Protocol: as §1

MDA-MB-453 [3] = tested on: MDA-MB-453
Protocol: as §1

CAL-85-1 [4] = tested on: CAL-85-1
Protocol: as §1

DU-4475 [5] = tested on: DU-4475
Protocol: as §1

CAL-51 [6] = tested on: CAL-51
Protocol: as §1

HDQ-P1 [7] = tested on: HDQ-P1; remark: listed apart in the source
Protocol: (§2)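 DSRT, CellTiter-Blue viability, 72 h incubation. Signal is normalised to DMSO and benzethonium chloride controls. Value is the normalised response at dose 6.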

CAL-148 [8] = tested on: CAL-148; remark: listed apart in the source
Protocol: as §2

MDA-MB-453 [9] = tested on: MDA-MB-453; remark: listed apart in the source
Protocol: as §2

CAL-85-1 [10] = tested on: CAL-85-1; remark: listed apart in the source
Protocol: as §2

DU-4475 [11] = tested on: DU-4475; remark: listed apart in the source
Protocol: as §2

CAL-51 [12] = tested on: CAL-51; remark: listed apart in the source
Protocol: as §2

HDQ-P1 [13] = tested on: HDQ-P1; remark: listed apart in the source
Protocol: (§3)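 DSRT, CellTiter-Blue viability, 72 h incubation. Signal is normalised to DMSO and benzethonium chloride controls. Value is the normalised response at dose 7.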

CAL-148 [14] = tested on: CAL-148; remark: listed apart in the source
Protocol: as §3

MDA-MB-453 [15] = tested on: MDA-MB-453; remark: listed apart in the source
Protocol: as §3

CAL-85-1 [16] = tested on: CAL-85-1; remark: listed apart in the source
Protocol: as §3

DU-4475 [17] = tested on: DU-4475; remark: listed apart in the source
Protocol: as §3

CAL-51 [18] = tested on: CAL-51; remark: listed apart in the source
Protocol: as §3

SMILES	normalised viability (HDQ-P1 [7]) [%]	normalised viability (CAL-148 [8]) [%]	normalised viability (MDA-MB-453 [9]) [%]	normalised viability (CAL-85-1 [10]) [%]	normalised viability (DU-4475 [11]) [%]	normalised viability (CAL-51 [12]) [%]	further results
COc1cc(F)c(F)c(Nc2ccc(I)cc2F)c1NS(=O)(=O)C1(C[C@H](O)CO)CC1 [RDEA119] (3000 nM)							normalised viability (HDQ-P1 [1]): 36.1%; normalised viability (CAL-148 [2]): 75.7%; normalised viability (MDA-MB-453 [3]): 54.9%; normalised viability (CAL-85-1 [4]): 33.4%; normalised viability (DU-4475 [5]): 1.46%; normalised viability (CAL-51 [6]): 69.9%
COc1cc2c(cc1O)CC[C@@H]1[C@@H]2CC[C@]2(C)[C@@H](O)CC[C@@H]12 [2-methoxyestradiol] (3000 nM)							normalised viability (HDQ-P1 [1]): 56.7%; normalised viability (CAL-148 [2]): 29.6%; normalised viability (MDA-MB-453 [3]): 34.4%; normalised viability (CAL-85-1 [4]): 41.2%; normalised viability (DU-4475 [5]): 36.1%; normalised viability (CAL-51 [6]): 42.2%
O=C1CN2Cc3c(ccc(Cl)c3Cl)N=C2N1 [Anagrelide] (300 nM)	80.3	107	111	94.4	94.7	77.6	
CC(=O)c1c(C)c2cnc(Nc3ccc(N4CCNCC4)cn3)nc2n(C2CCCC2)c1=O (300 nM)	52.7	102	74.3	89.8	102	81.1	
COc1cc(F)c(F)c(Nc2ccc(I)cc2F)c1NS(=O)(=O)C1(C[C@H](O)CO)CC1 [RDEA119] (300 nM)	58.7	82.6	80.8	72.8	1.76	74.9	
Cn1cc(C2=Nc3cc(NC(=O)C(N)C4CCCCC4)cc4c3C2=CNNC4=O)cn1 (stereo not given) (300 nM)	58.7	84	34.9	66.1	84.3	93.9	
O=P(O)(O)C(O)(Cn1ccnc1)P(=O)(O)O [Zoledronic acid] (300 nM)	68.9	93.6	93.7	98.4	115	104	
C[C@]1(O)C[C@@H](c2nc(-c3ccc4ccc(-c5ccccc5)nc4c3)c3c(N)nccn32)C1 [OSI-906] (300 nM)	49.8	89.2	87	87.2	91.5	91.5	
Cn1cc(C2=Nc3cc(NC(=O)C(N)C4CCCCC4)cc4c3C2=CNNC4=O)cn1 (stereo not given) (3000 nM)							normalised viability (HDQ-P1 [1]): 51.6%; normalised viability (CAL-148 [2]): 21.9%; normalised viability (MDA-MB-453 [3]): 25.2%; normalised viability (CAL-85-1 [4]): 50.7%; normalised viability (DU-4475 [5]): 62.3%; normalised viability (CAL-51 [6]): 80.6%
CC[C@@H]1C(=O)OC[C@@H]1Cc1cncn1C [Pilocarpine] (1200 nM)	113	101	105	100	88.2	97.6	
C[C@]12CC[C@@H]3c4ccc(OC(=O)N(CCCl)CCCl)cc4CC[C@H]3[C@@H]1CC[C@@H]2O [Estramustine] (29.7 nM)	95.3	116	97.2	97.2	71.4	79.1	
COc1cc(F)c(F)c(Nc2ccc(I)cc2F)c1NS(=O)(=O)C1(C[C@H](O)CO)CC1 [RDEA119] (1000 nM)							normalised viability (HDQ-P1 [13]): 40.8%; normalised viability (CAL-148 [14]): 87.7%; normalised viability (MDA-MB-453 [15]): 67%; normalised viability (CAL-85-1 [16]): 54.1%; normalised viability (DU-4475 [17]): 0.64%; normalised viability (CAL-51 [18]): 79.3%
Cn1cnc2c(F)c(Nc3ccc(Br)cc3Cl)c(C(=O)NOCCO)cc21 [Selumetinib] (300 nM)	41.9	89.6	121	83.4	7.86	95.1	
CC(=O)c1c(C)c2cnc(Nc3ccc(N4CCNCC4)cn3)nc2n(C2CCCC2)c1=O (1000 nM)							normalised viability (HDQ-P1 [13]): 99.5%; normalised viability (CAL-148 [14]): 107%; normalised viability (MDA-MB-453 [15]): 66.2%; normalised viability (CAL-85-1 [16]): 98.9%; normalised viability (DU-4475 [17]): 94.6%; normalised viability (CAL-51 [18]): 72.8%
Cc1sc2c(c1C)C(c1ccc(Cl)cc1)=N[C@@H](CC(=O)OC(C)(C)C)c1nnc(C)n1-2 [(+)JQ1] (300 nM)	62.9	73.8	34.8	64.2	57.6	98.1	
CC1(C)CNc2cc(NC(=O)c3cccnc3NCc3ccncc3)ccc21 [Motesanib] (300 nM)	62.8	98.8	86.5	78.1	95.9	103	
CC1=C2C[C@H]3[C@@H](CC=C4C[C@@H](O)CC[C@@]43C)[C@@H]2CC[C@]12O[C@@H]1C[C@H](C)CN[C@H]1[C@H]2C [Cyclopamine] (300 nM)	79.2	115	113	106	105	115	
Oc1ncnc2[nH]ncc12 [Allopurinol] (300 nM)	73.6	113	101	104	91.6	93.3	
Nc1nc2[nH]cnc2c(=S)[nH]1 [Thioguanine] (300 nM)	75.6	99	107	93.3	100	102	
O=NN(CCCl)C(=O)NCCCl [Carmustine] (300 nM)	79.4	101	110	94.2	77.4	108	
